Laboratory results: patent publication US20220387412A1, “Novel Superebastine Against Therapy Resistant Prostate Cancer” (University of Kentucky Research Foundation, priority 2019, published 2022)
“Also recorded” adds a separate entry of the source.

Experiments:
Format in all cases: cell-based
[1] = system: C4-2, C4-2R, LNCaP and M49C cells; test: Resazurin cell viability assay, AR-positive cells and drug resistant counterparts; settings: 24 h, 10% FBS
Experimental: FIGS. 4A-B show graphs illustrating viability of androgen independent and androgen dependent cells treated with Super-EBS. (A) Androgen independent AR-positive C4-2 and C4-2R were treated with Super-EBS and vehicle control for 24 h in 10% FBS. Cell viability was measured by Resazurin assay. (B) Androgen dependent AR-positive LNCaP and M49C were treated under same condition and cell viability by Resazurin assay. *P<0.05; ** P<0.01 by the Student's t test.
In particular, cell viability of the AR-positive prostate cancer cells and their drug resistant counterparts was lower for the cells treated with Super-EBS.

CwR22Rv1 Enz(R) cells = test: Annexin V-PI staining and FACS analysis for apoptotic cells; settings: 2 or 4 μM, 24 h
Experimental: CwR22Rv1 Enz(R) cells were treated with Super-EBS (2 or 4 μM) for 24 h in 10% FBS containing medium. Live cells were subjected to Annexin V-PI staining and FACS analysis for apoptotic cells. The percentage on the figure indicates the percentage of cells post treatment.
(§1) Super-EBS causes cell death by the activation of an apoptotic cascade. […] CwR22Rv1 Enz(R) cells were also tested with Super-EBS for 24 h and subjected to FACS analysis using Annexin V and propidium iodide (PI) staining.

[2] = system: CWR22Rv1 ENZ-sensitive cells; test: Resazurin cell viability assay, CWR22Rv1 ENZ-sensitive; settings: CWR22Rv1 ENZ-sensitive, 24, 48 and 72 hours
Experimental: (§2) Mean+SD shown. (*) Asterisk indicates […] by the Student's t-test.
(§3) Cell viability was then measured by resazurin assays. […] On the other hand, Super-EBS (10 μM) was effective in 24 hours. […] Mean+SD are shown. P<0.01 by Student's t-test.

C4-2 cells = test: Western blot for γH2AX (Ser139), DNA double stranded breaks, C4-2; settings: C4-2, 0.5 or 1 μM, 24 h
Experimental: (§4) FIGS. 7A-B show images illustrating that Super-EBS induces DNA damage in AR-positive prostate cancer cells. (A) C4-2 cells were treated with Super-EBS (0.5 or 1 μM) for 24 h in 10% FBS containing medium. […] Lysates were probed for YH2AX (Ser139 phosphorylation), a marker for DSB by Western blot analysis.
(§5) Super-EBS induces DNA damage in AR-positive prostate cancer cells. Lysates from AR-positive androgen-independent C4-2 cells (FIG. 7A) or androgen-dependent LNCaP cells (FIG. 7B) were treated with Super-EBS and subjected to Western blot analysis for γH2AX (Ser 139) positivity to detect DNA double stranded breaks (DSB). Super-EBS induced DSBs in both C4-2 and LNCaP cells (FIGS. 7A-B).

prostate cancer cells = test: Growth inhibition / cell death of prostate cancer cell cultures; settings: for cell death: within 24 h
Description: RAGE activation promotes proliferation, invasive bone homing, and metastasis of PCa cells.

[3] = system: CWR22Rv1 ENZ-resistant cells; test: ICC for active caspase 3 (apoptosis), CWR22Rv1 ENZ-resistant; settings: 0.1-5 μM, 24 hours
Experimental: (§6) FIGS. 5A-B show images and graphs illustrating that Super-EBS causes cell death by the activation of an apoptotic cascade. (A) AR-v7 expressing CwR22Rv1 and CwR22Rv1 Enz(R) cells were treated with Super-EBS (0.1-5 μM) in 10% FBS for 24 h and tested by ICC analysis for cleaved caspase 3 (green) and DAPI (blue). (B) Quantitative representation of ICC data. *P<0.05; **P<0.01 by Student's t test.
(§7) After determining that the cells were sensitive to Super-EBS, they were tested to determine whether Super-EBS inhibited cell viability by inducing apoptosis. CWR22Rv1 ENZ-sensitive and CWR22Rv1 ENZ-resistant cell lines were treated with vehicle, 0.1-, 0.5-, 1- and 5-μM of Super-EBS for 24 hours. The cells were then subjected to immunocytochemical (ICC) analysis for active caspase 3 (green fluorescence) to detect apoptotic cells, and 4, 6-diamidino-2-phenylindole (DAPI) staining (blue fluorescence) to reveal the cell nucleus. Cells were scored for apoptosis under a confocal microscope and percent apoptosis was calculated. […] Mean+SD are shown. P<0.01 by Student's t-test.
as §1

[4] = system: CWR22Rv1 ENZ-resistant cells; test: Resazurin cell viability assay, CWR22Rv1 ENZ-resistant; settings: CWR22Rv1 ENZ-resistant, 24, 48 and 72 hours
Experimental: as §2, §3

PC-3 cells = test: Resazurin cell viability assay, PC-3; settings: for cell viability (resazurin): PC-3, 10 μM
Experimental: as §2, §3

[5] = system: CWR22Rv1 ENZ-sensitive cells; test: ICC for active caspase 3 (apoptosis), CWR22Rv1 ENZ-sensitive; settings: 0.1-5 μM, 24 hours
Experimental: as §6, §7, §1

[6] = system: CwR22Rv1 Par-4 knock-down cells; test: γH2AX ICC / Western blot in Par-4 wild type and knock-down cells; settings: CwR22Rv1, 0.25 μM, 24 h
Experimental: FIGS. 8A-B show images illustrating that DNA damage induced by Super-EBS is mediated by Par-4. (A) CwR22Rv1 Par-4 wild type and knock-down cells were treated with Super-EBS (0.25 μM) for 24 h in medium containing 10% FBS, and then subjected to ICC for Par-4 (green) or YH2AX (Ser139) (red). (B) Western blot analysis for YH2AX, Par-4 and GAPDH was performed on lysates of Par-4 wild type (left) and knock-down (right) prostate cancer cells treated with Super-EBS (0.25 μM) for 24 h.
DNA damage induced by Super-EBS is mediated by Par-4.

LNCaP cells = test: Western blot for γH2AX (Ser139), DNA double stranded breaks, LNCaP; settings: 0.25 or 0.5 μM, 24 h
Experimental: as §4, §5

| Compound | cytotoxic effect compared with EBS ([1]; 10 μM) | susceptibility of LNCaP and M49C versus C4-2 and C4-2R to cytotoxic action [1] | cells in the early and late stages of apoptosis (Annexin V/PI FACS) (CwR22Rv1 Enz(R) cells) | cell viability (resazurin), effective concentration [2] | DNA double stranded breaks (γH2AX Ser139) (C4-2 cells) | concentration inducing apoptosis and growth inhibition (prostate cancer cells; ENZ-resistant as well as ENZ-sensitive prostate cancer cells) | cell death (prostate cancer cells; ENZ-resistant prostate cancer cell cultures) | cell death (prostate cancer cells; ENZ-sensitive prostate cancer cell cultures) | potency in killing cells compared with EBS (prostate cancer cells; parental and ENZ-resistant prostate cancer cell lines) | apoptosis (active caspase 3 ICC) relative to vehicle control [3] | cell viability (resazurin), effective concentration [4] | cell viability (resazurin) (PC-3 cells; 24 hours) | cell viability (resazurin), effective concentration (PC-3 cells; PC-3, 24, 48 and 72 hours) | apoptosis (active caspase 3 ICC) relative to vehicle control [5] | γH2AX positivity after Par-4 knock-down [6] | DNA double stranded breaks (γH2AX Ser139) (LNCaP cells) | cell viability (resazurin) (PC-3 cells; 72 hours) |
| --- | --- | --- | --- | --- | --- | --- | --- | --- | --- | --- | --- | --- | --- | --- | --- | --- | --- |
| CC(C)(C)c1ccc(/C(CCCN2CCC(OC(c3ccccc3)c3ccccc3)CC2)=N\C(=N)N)cc1 [Super-EBS] | more pronounced than EBS | more susceptible | dose dependent increase | effective at nanomolar concentrations | induced DSBs | nanomolar concentrations | 95-98% | 95-98% | more potent than EBS | significantly higher levels; also recorded: dose dependent increase in apoptotic cells | effective at nanomolar concentrations | effective | effective at nanomolar concentrations | significantly higher levels; also recorded: dose dependent increase in apoptotic cells | decrease in the YH2AX positivity | induced DSBs | – |
| CC(C)(C)c1ccc(C(=O)CCCN2CCC(OC(c3ccccc3)c3ccccc3)CC2)cc1 [EBS, 4-[4-(Diphenylmethoxy)-1-piperidinyl]-1-[4-(2-methyl-2-propanyl)phenyl]-1-butanone, reference compound] | – | – | – | – | – | – | – | – | – | – | – | – | – | – | – | but not EBS induced significant amount of DSBs | sensitive |
